Test results as given in patent US20230391783A1, “COMPOUND CONTAINING 2,4-THIAZOLE RING, PREPARATION METHOD THEREFOR, AND APPLICATION THEREOF” (SHANDONG UNIVERSITY, priority 2021, published 2023).

What was measured:
[1] = system: lymphocytes (fresh spleen cells); test: Lymphocyte proliferation assay (ConA-induced spleen cells); type: cell-based, rat
Protocol: (§1) Lymphocytotoxicity test: rats were euthanized by spinal dislocation method, their spleens were aseptically removed and ground to make a single cell suspension. After removing red blood cells with 2 mL of red blood cell lysis buffer, the cell concentration was adjusted to 2×10^6 cells/mL using RPMI-1640 medium containing 10% fetal bovine serum (FBS). Next, 100 μL of the 2×10^6 cells/mL cell suspension and 100 μL of the appropriate concentration of the tested compound were added to each well of a 96-well plate, and the plate was incubated at 37° C. with 5% CO2 for 48 hours. At the end of the incubation period, 10 μL of CCK8 was added to each well, and the plate was returned to the incubator for 5-7 hours. The OD450 value was then measured at 450 nm using an enzyme-linked immunosorbent assay reader.
Lymphocyte proliferation assay: fresh spleen cells at a concentration of 2×10^6 cells/mL were incubated for 48 hours in an incubator maintained at 37° C. and 5% CO2 for 48 hours, and the culture medium was induced for cell proliferation with 5 μg/mL of ConA, and the appropriate concentration of the tested compound was added to test its inhibitory activity on lymphocyte proliferation. The test results of some compounds are shown in the table below and figures accompanying the application: […]

lymphocytes = test: Lymphocytotoxicity test (CCK8, no stimulation factor); type: cell-based, rat
Protocol: as §1
In addition, the toxicity of the compounds on lymphocytes was also tested in this example. The testing method was as follows: the cell density was 3×10^6 cells/mL, and 100 μL of the cell suspension containing 3×10^5 cells/well was added to each well of a 96-well plate without any stimulation factor.

[2] = system: CD-3 antibody-induced inflammatory factors IL-6, IL-2, TNF-a and IFN-y in serum; test: Inhibition of CD-3 antibody-induced cytokine storm in mice; type: in vivo; settings: 10 mg/kg via tail vein, two injections, CD-3 antibody 100 μg/kg i.p., ELISA (FIG. 5)
Protocol: (§2) A total of 15 healthy male mice were randomly and equally divided into 3 groups, namely, control group, model group and drug administration group, with 5 mice in each group, labeled and their body weight recorded. Respectively administered: the control group and the model group were injected with normal saline via tail vein respectively, and the administration group was injected with the compounds prepared in Examples 1-4 via tail vein respectively; the dose was 10 mg/kg (2 mg/mL; 50 μL/10 g). CD-3 antibody was injected intraperitoneally, 100 μg/kg, after 0.5 hours. A second injection of the drug was given 5 hours later. Blood was collected from the mice 9 hours later, followed by euthanasia.
(§3) ELISA was performed to determine levels of IL-6, IL-2, TNF-a and IFN-y in serum.

[3] = system: LPS-induced inflammatory factors IL-6, IL-2, TNF-a and IFN-y in serum; test: Inhibition of LPS-induced cytokine storm in mice; type: in vivo
Protocol: as §2, with “the” for “the compounds”, “One hour later, LPS” for “CD-3 antibody”, “intraperitoneally at 3 mg/kg (0.3 mg/mL,” for “intraperitoneally,”, “μL/10 g).” for “μg/kg, after 0.5 hours.”
as §3
Histopathological examination was performed on the administration group of compound IA-3: mouse lungs were fixed with 4% paraformaldehyde, and histopathological changes were observed by HE.

[4] = Pharmacokinetics and oral bioavailability in Wistar rats; type: in vivo; settings: rat
Protocol: To prepare the standard series solution, a suitable amount of compound IA-3 was accurately weighed and placed in a 100 mL volumetric flask. The compound was dissolved in acetonitrile and diluted to the mark to produce a 25.0 μg/mL stock solution. The solution was mixed thoroughly by shaking and used for further analysis. An appropriate amount of the stock solution was taken separately, diluted with acetonitrile, and made up to the mark to prepare a series of standard solutions with concentrations of 5, 10, 25, 50, 100, 250, 500, and 1000 ng/mL. The solutions were stored in a refrigerator at 4° C. for later use.
Preparation of internal standard solution: a suitable amount of internal standard was accurately weighed and placed in a 100 mL volumetric flask. The internal standard was dissolved in acetonitrile and diluted to the mark to produce a 25 μg/mL stock solution. The solution was mixed thoroughly by shaking and used for further analysis. An accurately weighed amount of the stock solution was taken again and diluted with acetonitrile to prepare the internal standard reference solution at a concentration of 50 ng/mL. The solution was stored in a refrigerator at 4° C. for later use.
Preparation of plasma samples: 80 μL of rat plasma was taken, and 120 μL of internal standard was added. The mixture was vortexed for 2 min and centrifuged for 10 min. Then, 140 μL of the supernatant was collected and centrifuged for another 10 min. Finally, 10 μL of the supernatant was injected for analysis.
Standard Curve: 64 μL of blank rat plasma was mixed with 16 μL of the test compound standard series solution and 120 μL of acetonitrile solution containing the internal standard. The mixture was vortexed for 2 minutes and centrifuged for 10 minutes. Then, 140 μL of the supernatant was taken and centrifuged for another 10 minutes, 10 μL of the sample was injected and analyzed with HPLC-HR-MS. Instrumentation obtained the linear regression equation as the standard curve.
Sampling: eight healthy male Wistar rats were randomly divided into two groups (oral group and intravenous group), with four rats in each group. Rats were fasted for 12 h and provided with free access to water before the experiment. The oral group was administered with the test drug at a dose of 5 mg/kg, and the intravenous group was administered with 1 mg/kg. Blood samples of approximately 0.4 mL were collected from the rat orbital vein before and at 5 min, 15 min, 30 min, 1 h, 1.5 h, 2 h, 4 h, 6 h, 8 h, 10 h, and 12 h after administration, and immediately transferred to heparinized centrifuge tubes. Plasma was separated by centrifugation.
Sample determination and data processing: the rat plasma samples were processed according to the “Preparation of plasma samples” procedure and analyzed under the conditions described above. The non-compartmental model was applied to process the drug concentration data mentioned above, and the pharmacokinetic parameters were calculated using the DAD 2.0 software. The bioavailability was calculated according to the formula F=AUCig*Div/AUCiv*Dig*100%.

[5] = male, Wistar, plasma, iv, single injection 1 mg/kg
[6] = male, Wistar, plasma, single oral administration 5 mg/kg
[7] = single oral administration 5 mg/kg

Question: What does the source list for `O=C(NCc1cccnc1)c1csc(-c2cnn3cccnc23)n1` [IA-3]?
Answer: IC50 ([1]; Rattus norvegicus, inhibition of lymphocyte proliferation, 5 μg/mL ConA, 48 hours): 13.2 ± 2.05 nM; Inhibition rate (%) ([1]; lymphocyte proliferation induced with 5 μg/mL ConA, 48 hours, test concentration not given): 97.09%; inhibitory effect on lymphocyte proliferation (in words) ([1]; rat lymphocytes): particularly significant inhibitory effect on lymphocytes; safety index (in words) (lymphocytes): high safety index; toxicity on lymphocytes (in words) (lymphocytes; 5, 2.5, 1.25 and 0.625 μM, no stimulation factor (FIG. 2)): less cytotoxicity; reduction of CD-3 antibody-induced IL-6, IL-2, TNF-a and IFN-y levels in serum [2]: most significant effect on the reduction of the above factors; reduction of LPS-induced IL-6, IL-2, TNF-a and IFN-y levels in serum ([3]; 10 mg/kg via tail vein, two injections, LPS 3 mg/kg i.p., ELISA (FIG. 3)): most significant effect on the reduction of the above factors; lung histopathology (H&E) ([3]; LPS model, 10 mg/kg via tail vein (FIG. 4)): reduced the severity of lung pathology; AUC(0-t) [4, 5]: 717 ng·h/mL; MRT [4, 5]: 30.4 min; clearance [4, 5]: 45.1 mL/min/kg; half-life [4, 5]: 21.6 min; Vd ([4]; male, Wistar, plasma, iv, single injection 1 mg/kg, read-out: Vss): 1.08 L/kg; bioavailability ([4]; male, Wistar, plasma, oral, intragastric 5 mg/kg vs intravenous 1 mg/kg, read-out: relative oral bioavailability): 22.1%; AUC(0-inf) [4, 6]: 408 ng·h/mL; AUC(0-t) [4, 6]: 408 ng·h/mL; MRT [4, 6]: 76.2 min; half-life [4, 6]: 125 min; CL [4, 7]: 384 mL/min/kg; Vss [4, 7]: 69.5 L/kg
